Results published in ChEMBL document CHEMBL5247626, “In vitro and in vivo biological evaluation of newly synthesized multi-target 20(R)-panaxadiol derivatives for treating Alzheimer's disease” (Eur J Med Chem, 2022).
Active and inactive are the calls of the source. The calls are words filed in the database; no cut-off is given here.

Assays:
[1] = test system: PC-12; experiment: Cytotoxicity against rat PC12 cells assessed as effect on survival at < 60 uM incubated for 24 hrs by MTT assay; format: toxicity, cell-based; conditions: pc-12, 24 h
[2] = AUC (0-infinity) in Sprague-Dawley rat at 60 mg/kg,po measured at 0.25 to 24 hrs post administration by LC-MS/MS analysis; format: ADME, organism-based; design: dose 60 mg/kg, time 0.25-24 hrs, route po; conditions: in vivo
[3] = target: Amyloid-beta precursor protein (Homo sapiens) (UniProt P05067); experiment: Disaggregation of amyloid beta (25 to 35) (unknown origin) self aggregation at 15 uM incubated for 24 hrs by transmission electron microscopy analysis
[4] = Cmax in Sprague-Dawley rat at 60 mg/kg,po measured at 0.25 to 24 hrs post administration by LC-MS/MS analysis; format: ADME, organism-based; design: dose 60 mg/kg, time upper 24 hrs, time lower 0.25 hrs, route po; conditions: in vivo
[5] = test system: Mus musculus; experiment: Antialzheimer activity against amyloid beta (25 to 35)-induced cognitive deficit ICR mouse model assessed as increase in discrimination index at 50 mg/kg,po observed after 24 hrs of administration by novel object recognition test; format: functional, organism-based
[6] = test system: Mus musculus; experiment: Antialzheimer activity against amyloid beta (25 to 35)-induced brain injury ICR mouse model assessed as attenuation of pathological change in hippocampal CA3 region at 12.5 to 50 mg/kg,po administrated for 21 days by hematoxylin and eosin staining based microscopic analysis; format: functional, organism-based; conditions: dose 12.5-50 mg/kg, time 21.0 day
[7] = test system: Mus musculus; experiment: Antialzheimer activity against amyloid beta (25 to 35)-induced cognitive deficit ICR mouse model assessed as attenuation of behavioral deficit at 50 mg/kg,po observed after 12 to 15 days of administration by Y maze test; format: functional, organism-based; conditions: time 12-15 day
[8] = Volume of distribution of steady state in Sprague-Dawley rat at 10 mg/kg,iv measured at 0.083 to 24 hrs post administration by LC-MS/MS analysis; format: ADME, organism-based; conditions: in vivo, time 0.083-24 hrs, read-out: Vdss
[9] = C0 in Sprague-Dawley rat at 10 mg/kg,iv measured at 0.083 to 24 hrs post administration by LC-MS/MS analysis; format: ADME, organism-based; conditions: in vivo, time 0.083-24 hrs
[10] = test system: Mus musculus; experiment: Antialzheimer activity against amyloid beta (25 to 35)-induced cognitive deficit ICR mouse model assessed as increase in discrimination index at 50 mg/kg,po observed after 1 hr of administration by novel object recognition test; format: functional, organism-based
[11] = test system: HepG2; experiment: Cytotoxicity against human HepG2 cells assessed as effect on survival at < 60 uM incubated for 24 hrs by MTT assay; format: toxicity, cell-based; conditions: hepg2, 24 h
[12] = Half life in Sprague-Dawley rat at 10 mg/kg,iv measured at 0.083 to 24 hrs post administration by LC-MS/MS analysis; format: ADME, organism-based; conditions: in vivo, time 0.083-24 hrs
[13] = test system: PC-12; experiment: Cytotoxicity against rat PC12 cells assessed as decrease in cell viability at 120 uM incubated for 24 hrs by MTT assay; format: toxicity, cell-based; conditions: pc-12, 24 h
[14] = test system: Mus musculus; experiment: Antialzheimer activity against amyloid beta (25 to 35)-induced cognitive deficit ICR mouse model assessed as increase in discrimination index at 25 mg/kg,po observed after 1 hr of administration by novel object recognition test; format: functional, organism-based
[15] = test system: PC-12; experiment: Neuroprotective activity against rat PC12 cells assessed as reduction in amyloid beta (25 to 35)-induced cytotoxicity at 15 uM incubated for 4 hrs followed by amyloid beta (25 to 35) treatment for 24 hrs by MTT assay relative to control; format: functional; design: scale not given: the % may be the effect or the level left; conditions: time 28 hrs
[16] = Half life in Sprague-Dawley rat at 60 mg/kg,po measured at 0.25 to 24 hrs post administration by LC-MS/MS analysis; format: ADME, organism-based; conditions: in vivo, time 0.25-24 hrs
[17] = test system: PC-12; experiment: Neuroprotective activity against amyloid beta (25 to 35)-induced rat PC12 cells assessed as decrease in p38 expression level at 7.5 to 30 uM preincubated for 30 mins followed by amyloid beta (25 to 35) addition and measured after 24 hrs by western blot assay; format: functional, cell-based; conditions: dose 7.5-30 µM, time 24.5 hrs
[18] = MRT (0 to t) in Sprague-Dawley rat at 10 mg/kg,iv measured at 0.083 to 24 hrs post administration by LC-MS/MS analysis; format: ADME, organism-based; conditions: in vivo, time 0.083-24 hrs
[19] = test system: PC-12; experiment: Neuroprotective activity against rat PC12 cells assessed as reduction in amyloid beta (25 to 35)-induced cytotoxicity incubated for 4 hrs followed by amyloid beta (25 to 35) treatment for 24 hrs by MTT assay; format: functional, cell-based
[20] = Cytotoxicity against mouse Neuro2a cells assessed as cell viability at 120 uM incubated for 24 hrs by MTT assay; format: toxicity, cell-based; conditions: Neuro2a (N2a) cells, read-out: Activity
[21] = test system: PC-12; experiment: Neuroprotective activity against amyloid beta (25 to 35)-induced rat PC12 cells assessed as decrease in intracellular ROS level at 7.5 uM incubated for 24 hrs by DCFH-DA staining based flow cytometry assay; format: functional, cell-based
[22] = Toxicity in ICR mouse assessed as pathological changes in kidney at 12.5 to 50 mg/kg,po administrated for 20 days by hematoxylin and eosin staining based microscopic analysis; format: organism-based; conditions: in vivo, 480 h, dose 12.5-50 mg/kg, time 20 day
[23] = test system: PC-12; experiment: Neuroprotective activity against amyloid beta (25 to 35)-induced rat PC12 cells assessed as decrease in beta-secretase protein expression level at 3.75 to 30 uM incubated for 30 mins followed by amyloid beta (25 to 35) addition and measured after 24 hrs by ELISA; format: functional, cell-based; conditions: dose 3.75-30 µM, time 24.5 hrs
[24] = Oral bioavailability in Sprague-Dawley rat at 60 mg/kg measured after 0.25 to 24 hrs post administration by LC-MS/MS analysis; format: ADME, organism-based; conditions: in vivo, time 0.25-24 hrs
[25] = test system: Mus musculus; experiment: Antialzheimer activity against amyloid beta (25 to 35)-induced brain injury ICR mouse model assessed as increase in NeuN expression level in hippocampal CA3 region at 50 mg/kg,po administrated for 21 days by immunohistochemistry analysis; format: functional, organism-based; conditions: time 21.0 day
[26] = test system: Mus musculus; experiment: Antialzheimer activity against amyloid beta (25 to 35)-induced brain injury ICR mouse model assessed as attenuation of pathological change in cerebral cortex at 12.5 to 50 mg/kg,po administrated for 21 days by hematoxylin and eosin staining based microscopic analysis; format: functional, organism-based; conditions: dose 12.5-50 mg/kg, time 21.0 day
[27] = test system: PC-12; experiment: Neuroprotective activity against amyloid beta (25 to 35)-induced rat PC12 cells assessed as decrease in IL-1beta expression level at 7.5 to 30 uM preincubated for 30 mins followed by amyloid beta (25 to 35) addition and measured after 24 hrs by western blot assay; format: functional, cell-based; conditions: dose 7.5-30 µM, time 24.5 hrs
[28] = test system: PC-12; experiment: Neuroprotective activity against rat PC12 cells assessed as reduction in amyloid beta (25 to 35)-induced cytotoxicity at 2.67 to 91.27 uM incubated for 4 hrs followed by amyloid beta (25 to 35) treatment for 24 hrs by MTT assay relative to control; format: functional; design: scale not given: the % may be the effect or the level left; conditions: dose 2.67-91.27 µM, time 28 hrs
[29] = Permeability of the compound incubated for 4 hrs by PAMPA-BBB assay based HPLC analysis
[30] = test system: Mus musculus; experiment: Antialzheimer activity against amyloid beta (25 to 35)-induced cognitive deficit ICR mouse model assessed as increase in preferential index at 50 mg/kg,po observed after 1 hr of administration by novel object recognition test; format: functional, organism-based
[31] = Clearance in Sprague-Dawley rat at 10 mg/kg,iv measured at 0.083 to 24 hrs post administration by LC-MS/MS analysis; format: ADME, organism-based; conditions: in vivo, time 0.083-24 hrs

Chain of Amyloid-beta precursor protein (Homo sapiens) (P05067 whole entry): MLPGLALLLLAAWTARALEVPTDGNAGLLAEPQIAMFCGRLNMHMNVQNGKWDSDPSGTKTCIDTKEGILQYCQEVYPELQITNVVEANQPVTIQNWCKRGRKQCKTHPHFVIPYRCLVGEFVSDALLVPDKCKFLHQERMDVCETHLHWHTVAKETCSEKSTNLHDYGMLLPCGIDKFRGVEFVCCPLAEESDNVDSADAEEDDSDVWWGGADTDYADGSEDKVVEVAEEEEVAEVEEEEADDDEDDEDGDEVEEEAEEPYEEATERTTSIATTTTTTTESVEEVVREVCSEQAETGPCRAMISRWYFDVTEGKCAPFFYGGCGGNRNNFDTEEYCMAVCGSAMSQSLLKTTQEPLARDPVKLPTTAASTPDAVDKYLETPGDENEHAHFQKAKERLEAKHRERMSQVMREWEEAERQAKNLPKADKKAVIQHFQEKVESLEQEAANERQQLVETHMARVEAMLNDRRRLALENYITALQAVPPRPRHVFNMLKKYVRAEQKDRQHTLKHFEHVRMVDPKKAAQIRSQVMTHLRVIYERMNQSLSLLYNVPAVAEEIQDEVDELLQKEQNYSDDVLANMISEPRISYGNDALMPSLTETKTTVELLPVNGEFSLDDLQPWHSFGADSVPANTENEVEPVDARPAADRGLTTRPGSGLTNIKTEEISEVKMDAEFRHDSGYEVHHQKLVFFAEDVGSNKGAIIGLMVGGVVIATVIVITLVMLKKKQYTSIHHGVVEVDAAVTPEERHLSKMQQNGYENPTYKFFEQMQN

CC1(C)CCC[C@](C)([C@H]2CC[C@]3(C)[C@@H]2[C@H](O)C[C@@H]2[C@@]4(C)CC[C@H](OC(=O)NCc5ccccc5)C(C)(C)[C@@H]4CC[C@]23C)O1
Activity [1]: Non-Toxic | AUC(0-inf) [2]: 326 ng·h/mL | Activity [3]: Active | Cmax [4]: 0.22 µg/mL | Activity [5]: Active | Activity [6]: Active | Activity [7]: Active | Vd [8]: 0.133 L/kg | C0 [9]: 237 µg/mL | Activity [10]: inactive | Activity [11]: Non-Toxic | half-life [12]: 156 min | Activity [13]: Toxic | Activity [14]: inactive | Activity [15]: 73.01% | half-life [16]: 49 min | Activity [17]: Active | MRT last [18]: 25.6 min | EC50 [19]: 13.2 µM | viability at 24 h, 120 µM [20]: > 50% | Activity [21]: Active | Activity [22]: Non-Toxic | Activity [23]: Active | bioavailability [24]: 0.2% | Activity [25]: Active | Activity [26]: Active | Activity [27]: Active | Activity [28]: 14.89% | Papp at 4 h [29]: 26.1 ×10⁻⁶ cm/s | Activity [30]: inactive | clearance [31]: 4.29 mL/min/kg
